The source of these data is publication PMC7442650, “A machine learning-based chemoproteomic approach to identify drug targets and binding sites in complex proteomes” (Nature Communications, 2020).

“And” between values parts separate entries of the source, which are not always exact repeats. Identical values can stand only once. Like-named read-outs stand apart in the source and are kept apart here.

The target of experiment [1] is Bcin06g02870 (predicted casein kinase I homolog) (Botrytis cinerea, UniProt A0A384JJQ0). As to the kind of experiment: LiP-Quant, Botrytis cinerea lysate. It counts as binding. From the text: Given its abilities to identify and characterize drug targets and their binding sites, we applied LiP-Quant to a research fungicide compound with an unknown target (BAYE-004, Fig. 4a).

In the next experiment the test system is His-tagged Bcin06g02870. As to the kind of experiment: Cellular thermal shift assay (CETSA), western blot. It counts as cell-based, Botrytis cinerea. The settings on record: in vivo treatment, 56 °C. On the procedure:
Botrytis cinerea BO47 (CK1 His-Tagged) cell suspension was adjusted to 1 × 10^6 sp/ml GYPm and incubated for 24 h at 21 °C (110 rpm). […] Cells were harvested by filtration (100 µm) and rinsed with 15 ml of ice-cold HEPES buffer (0.1 M HEPES, 50 mM NaCl, pH 7.5). Harvested mycelium was resuspended in 3.5 ml HEPES buffer and kept on ice. 500 µl of each concentration was transferred to a 2 ml Eppendorf tube and heated to 56 °C on a thermoshaker for 3 min, an additional aliquot from each concentration was left unheated. After heating, cells were kept on ice for 3 min, snap frozen in liquid nitrogen, lyophilized overnight and then stored at −80 °C until protein extraction.
Lyophilized mycelium was lysed using a Retsch mixer mill (MM 400) with 3 mm tungsten carbide beads (30 Hz for 3 s, two cycles), then 500 µl of cold protein extraction buffer (50 mM HEPES, 50 mM NaCl, 0.4% NP-40) was added. Lysate was incubated for 10 min at 25 °C, centrifuged (10 min, 14,000g) and the supernatant was retained. The lysate was further centrifuged (20 min, 73,400g) to eliminate insoluble proteins. The supernatant was collected, and protein concentration was determined using the Qubit protein assay kit (#Q33211) and stored at −20 °C.
Target engagement was assessed by western blot. […] The membrane (target protein) and gel (loading control) were imaged using a ChemiDocXRS camera and quantified using ImageJ[43]. […]

For experiment [2], the target named is T1, Botrytis cinerea MBP-CK1 recombinant enzyme (MBP-tagged Bcin06g02870) (Botrytis cinerea, UniProt A0A384JJQ0).
T1 sequence (A0A384JJQ0 1-368): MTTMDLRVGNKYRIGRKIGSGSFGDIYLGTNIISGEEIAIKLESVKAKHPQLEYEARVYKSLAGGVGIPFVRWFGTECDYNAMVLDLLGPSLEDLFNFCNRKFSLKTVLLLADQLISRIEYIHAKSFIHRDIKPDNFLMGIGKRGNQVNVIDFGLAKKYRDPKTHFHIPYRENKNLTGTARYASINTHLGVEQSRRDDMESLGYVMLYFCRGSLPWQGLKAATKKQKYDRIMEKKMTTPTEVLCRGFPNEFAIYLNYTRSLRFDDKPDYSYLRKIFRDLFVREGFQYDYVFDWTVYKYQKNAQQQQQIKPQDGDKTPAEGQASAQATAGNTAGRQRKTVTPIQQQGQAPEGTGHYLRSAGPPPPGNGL
Briefly: CK1 kinase assay (LANCE Ultra TR-FRET). It is filed as biochemical. The settings on record: for % Inhibition of CK-1: rep 1, rep2. From the text: We calculated the center of mass of the #6 and #7 ranking LiP-Quant peptides to estimate the position of the BAYE-004 binding site within Bcin06g02870. Here we considered two LiP-Quant peptides for the center of mass calculation, as there were only two high scoring LiP-Quant peptides that could be used. The putative binding site of the drug maps in the ATP-binding site of Bcin06g02870, which is also a common binding site for kinase inhibitors (Fig. 4e, Supplementary Data 3). Finally, we performed a LANCE Ultra kinase assay (Perkin Elmer) to measure the phosphorylation activity on a peptide substrate of a purified MBP-tagged version of Bcin06g02870.
The LANCE Ultra time resolved fluorescence resonance energy transfer (Tr-FRET) kinase assay (Perkin Elmer, #TRF0300-C) protocol was used according to manufacturer’s instructions with adaptations made for the following conditions. […] The reaction was performed in duplicates in the dark at 30 °C for 90 min. Plates were read in a Victor2 Perkin plate reader (excitation 340 nm/emission 665 nm).
(In general: Time-resolved FRET reads energy transfer from a long-lived donor to a nearby acceptor.)

For experiment [3], the target named is Bcin16g04330 (predicted glycogen synthase kinase-3β homolog) (Botrytis cinerea, UniProt A0A384K7E5). Briefly: LiP-Quant, Botrytis cinerea lysate. The settings on record: read-out: extrapolated average EC50; top two ranking LiP-Quant peptides.
The test system of another experiment is Botrytis cinerea. As to the kind of experiment: Cell viability (IC50) assay, inhibition of cell growth by optical density. The settings on record: three days, Rep 1-3.
A further experiment addresses MAPK2K1 (MAP2K1) (Homo sapiens, UniProt Q02750). Briefly: LiP-Quant, HeLa lysate. It is filed as binding.
In experiment [4] the target is SRPK1_HUMAN (SRSF protein kinase 1) (Homo sapiens, UniProt Q96SB4). As to the kind of experiment: LiP-Quant, HeLa lysate. It counts as binding.
Experiment [5] relates to KS6A2_HUMAN (Ribosomal protein S6 kinase alpha-2).
For experiment [6], the target named is KS6A3_HUMAN (Ribosomal protein S6 kinase alpha-3) (Homo sapiens, UniProt P51812). Briefly: LiP-Quant, HeLa lysate. It counts as binding.
Another experiment addresses EIF2AK2 (Homo sapiens, UniProt P19525). Briefly: Deep LiP-Quant (4h gradient), HeLa lysate. It is filed as binding.
Another experiment deals with RPS6KA3 (Homo sapiens, UniProt P51812). Briefly: Deep LiP-Quant (4h gradient), HeLa lysate. It is filed as binding.
Experiment [7] has as its target CAMK2G (KCC2G_HUMAN, Calcium/calmodulin-dependent protein kinase type II subunit gamma) (Homo sapiens, UniProt Q13555). As to the kind of experiment: LiP-Quant, HeLa lysate. It is filed as binding. The settings on record: staurosporine sheet; peptide NLINQMLTINPAK; LIPRank 5.
Experiment [8] addresses CAMK2G (Calcium/calmodulin-dependent protein kinase type II subunit gamma, KCC2G_HUMAN) (Homo sapiens, UniProt Q13555). As to the kind of experiment: LiP-Quant, HeLa lysate. It is filed as binding. The settings on record: peptide NLINQMLTINPAK
The next experiment concerns the target NEK9 (Homo sapiens, UniProt Q8TD19). Briefly: Deep LiP-Quant (4h gradient), HeLa lysate.
Setting [9] is: peptide LPSGVFSL, MAP2K1 (Q02750).
[10] abbreviates: peptide STAGNFLVNPLEPK, SRPK1 (Q96SB4).
[11] abbreviates: protein level, experiment LiP-Quant.
[12] abbreviates: peptide VLGQGSFGK, RPS6KA3 (P51812).

Sequence of SRPK1_HUMAN (SRSF protein kinase 1) (Q96SB4 whole entry): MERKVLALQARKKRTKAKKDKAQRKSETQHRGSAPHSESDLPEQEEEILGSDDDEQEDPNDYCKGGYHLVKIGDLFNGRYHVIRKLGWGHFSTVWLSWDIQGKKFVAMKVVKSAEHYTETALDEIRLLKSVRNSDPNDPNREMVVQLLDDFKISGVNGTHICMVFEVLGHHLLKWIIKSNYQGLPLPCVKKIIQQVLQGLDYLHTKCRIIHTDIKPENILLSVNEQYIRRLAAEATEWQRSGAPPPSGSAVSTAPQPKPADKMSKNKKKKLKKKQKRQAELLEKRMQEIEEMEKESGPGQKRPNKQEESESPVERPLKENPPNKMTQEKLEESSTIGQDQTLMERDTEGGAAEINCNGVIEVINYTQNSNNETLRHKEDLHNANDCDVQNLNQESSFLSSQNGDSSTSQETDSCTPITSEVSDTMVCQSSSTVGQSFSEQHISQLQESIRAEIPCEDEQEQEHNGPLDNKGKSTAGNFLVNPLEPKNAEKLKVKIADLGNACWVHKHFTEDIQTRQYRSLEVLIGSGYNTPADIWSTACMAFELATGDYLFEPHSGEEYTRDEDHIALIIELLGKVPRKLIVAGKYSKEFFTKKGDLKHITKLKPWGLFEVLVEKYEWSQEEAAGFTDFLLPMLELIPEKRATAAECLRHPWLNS
Sequence of KS6A3_HUMAN (Ribosomal protein S6 kinase alpha-3) (P51812 whole entry): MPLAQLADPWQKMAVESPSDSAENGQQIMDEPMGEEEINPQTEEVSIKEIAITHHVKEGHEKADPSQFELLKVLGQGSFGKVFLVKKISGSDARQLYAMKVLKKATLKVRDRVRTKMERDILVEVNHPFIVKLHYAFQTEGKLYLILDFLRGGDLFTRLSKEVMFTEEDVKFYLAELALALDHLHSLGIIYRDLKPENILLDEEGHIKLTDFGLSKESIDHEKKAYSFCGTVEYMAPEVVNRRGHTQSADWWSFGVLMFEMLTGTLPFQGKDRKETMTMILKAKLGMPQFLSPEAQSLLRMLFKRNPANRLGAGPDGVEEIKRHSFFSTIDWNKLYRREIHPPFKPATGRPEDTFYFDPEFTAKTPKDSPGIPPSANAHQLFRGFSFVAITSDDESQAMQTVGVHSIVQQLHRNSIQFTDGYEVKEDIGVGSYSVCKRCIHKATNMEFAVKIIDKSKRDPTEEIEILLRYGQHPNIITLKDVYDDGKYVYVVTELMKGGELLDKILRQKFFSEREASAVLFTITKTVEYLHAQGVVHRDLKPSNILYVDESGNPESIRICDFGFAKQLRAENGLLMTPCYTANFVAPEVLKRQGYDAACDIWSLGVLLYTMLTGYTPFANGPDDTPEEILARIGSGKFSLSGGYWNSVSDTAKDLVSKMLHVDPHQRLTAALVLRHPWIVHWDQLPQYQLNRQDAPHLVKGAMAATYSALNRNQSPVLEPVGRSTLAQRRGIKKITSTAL
Sequence of CAMK2G (Calcium/calmodulin-dependent protein kinase type II subunit gamma, KCC2G_HUMAN) (Q13555 whole entry): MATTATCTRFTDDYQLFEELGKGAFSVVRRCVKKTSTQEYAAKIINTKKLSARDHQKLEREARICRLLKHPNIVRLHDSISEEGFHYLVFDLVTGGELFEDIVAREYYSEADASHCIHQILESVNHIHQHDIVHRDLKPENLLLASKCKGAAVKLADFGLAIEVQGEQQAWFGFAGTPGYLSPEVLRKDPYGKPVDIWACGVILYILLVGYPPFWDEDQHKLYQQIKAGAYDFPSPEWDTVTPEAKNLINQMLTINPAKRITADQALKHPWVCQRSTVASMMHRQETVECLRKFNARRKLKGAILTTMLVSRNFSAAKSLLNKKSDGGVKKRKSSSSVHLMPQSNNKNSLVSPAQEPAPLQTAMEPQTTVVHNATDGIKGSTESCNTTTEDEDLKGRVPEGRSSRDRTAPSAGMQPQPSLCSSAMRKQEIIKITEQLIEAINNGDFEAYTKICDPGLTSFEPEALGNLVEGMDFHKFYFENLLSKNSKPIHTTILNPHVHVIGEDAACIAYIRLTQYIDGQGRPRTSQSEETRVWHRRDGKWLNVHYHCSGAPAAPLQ
Sequence of MAPK2K1 (MAP2K1) (Q02750 whole entry): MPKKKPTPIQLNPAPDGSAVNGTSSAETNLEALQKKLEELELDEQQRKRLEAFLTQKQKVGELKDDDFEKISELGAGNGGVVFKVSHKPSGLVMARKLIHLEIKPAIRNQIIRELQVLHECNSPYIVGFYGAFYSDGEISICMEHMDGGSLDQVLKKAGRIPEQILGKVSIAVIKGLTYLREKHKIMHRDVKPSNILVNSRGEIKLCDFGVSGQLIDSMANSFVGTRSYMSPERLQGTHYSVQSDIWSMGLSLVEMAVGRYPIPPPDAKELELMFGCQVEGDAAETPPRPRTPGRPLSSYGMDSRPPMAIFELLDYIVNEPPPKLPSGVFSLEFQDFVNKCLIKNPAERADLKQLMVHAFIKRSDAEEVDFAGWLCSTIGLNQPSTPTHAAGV
Sequence of NEK9 (Q8TD19 whole entry): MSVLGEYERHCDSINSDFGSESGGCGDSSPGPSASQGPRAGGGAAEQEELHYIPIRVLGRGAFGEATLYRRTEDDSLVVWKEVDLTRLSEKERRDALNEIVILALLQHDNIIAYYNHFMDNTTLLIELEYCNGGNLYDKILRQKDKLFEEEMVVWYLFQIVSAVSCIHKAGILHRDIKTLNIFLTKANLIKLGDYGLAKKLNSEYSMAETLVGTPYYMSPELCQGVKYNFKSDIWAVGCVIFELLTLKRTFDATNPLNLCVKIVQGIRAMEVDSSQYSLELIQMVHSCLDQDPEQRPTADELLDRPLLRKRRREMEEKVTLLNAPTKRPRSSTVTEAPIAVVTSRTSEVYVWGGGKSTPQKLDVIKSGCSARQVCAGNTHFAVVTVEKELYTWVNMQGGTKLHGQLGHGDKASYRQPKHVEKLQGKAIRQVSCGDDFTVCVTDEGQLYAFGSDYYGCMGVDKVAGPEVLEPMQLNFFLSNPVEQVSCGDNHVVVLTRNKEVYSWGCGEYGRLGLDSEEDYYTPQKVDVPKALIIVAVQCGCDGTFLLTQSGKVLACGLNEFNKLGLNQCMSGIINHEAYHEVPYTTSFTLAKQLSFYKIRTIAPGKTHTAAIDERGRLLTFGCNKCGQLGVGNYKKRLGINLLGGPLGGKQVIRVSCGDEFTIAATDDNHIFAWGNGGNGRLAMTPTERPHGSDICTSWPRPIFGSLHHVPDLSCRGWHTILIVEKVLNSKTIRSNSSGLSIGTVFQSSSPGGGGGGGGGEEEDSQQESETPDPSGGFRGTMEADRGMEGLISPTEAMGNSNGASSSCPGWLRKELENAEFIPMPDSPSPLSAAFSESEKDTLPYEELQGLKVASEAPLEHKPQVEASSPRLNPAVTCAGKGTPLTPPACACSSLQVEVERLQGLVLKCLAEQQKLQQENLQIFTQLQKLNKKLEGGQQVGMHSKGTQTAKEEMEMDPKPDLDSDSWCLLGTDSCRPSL
Sequence of RPS6KA3 (P51812 whole entry): as the sequence (P51812 whole entry) above
Sequence of EIF2AK2 (P19525 whole entry): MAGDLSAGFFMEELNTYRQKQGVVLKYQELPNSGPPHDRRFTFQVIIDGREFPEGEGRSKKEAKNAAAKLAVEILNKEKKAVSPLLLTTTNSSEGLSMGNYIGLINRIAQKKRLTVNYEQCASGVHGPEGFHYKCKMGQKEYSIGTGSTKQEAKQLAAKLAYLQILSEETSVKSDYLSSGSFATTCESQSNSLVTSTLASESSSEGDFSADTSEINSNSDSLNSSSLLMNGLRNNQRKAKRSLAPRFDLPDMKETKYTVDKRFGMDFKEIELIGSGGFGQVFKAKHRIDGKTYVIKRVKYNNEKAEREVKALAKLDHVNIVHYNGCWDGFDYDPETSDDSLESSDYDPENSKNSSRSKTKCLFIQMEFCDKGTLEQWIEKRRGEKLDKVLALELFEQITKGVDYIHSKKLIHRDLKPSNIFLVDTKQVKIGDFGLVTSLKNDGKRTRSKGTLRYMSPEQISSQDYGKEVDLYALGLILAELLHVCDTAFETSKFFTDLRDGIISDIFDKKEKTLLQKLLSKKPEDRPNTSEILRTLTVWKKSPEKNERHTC
Sequence of Bcin16g04330 (predicted glycogen synthase kinase-3β homolog) (A0A384K7E5 1-398): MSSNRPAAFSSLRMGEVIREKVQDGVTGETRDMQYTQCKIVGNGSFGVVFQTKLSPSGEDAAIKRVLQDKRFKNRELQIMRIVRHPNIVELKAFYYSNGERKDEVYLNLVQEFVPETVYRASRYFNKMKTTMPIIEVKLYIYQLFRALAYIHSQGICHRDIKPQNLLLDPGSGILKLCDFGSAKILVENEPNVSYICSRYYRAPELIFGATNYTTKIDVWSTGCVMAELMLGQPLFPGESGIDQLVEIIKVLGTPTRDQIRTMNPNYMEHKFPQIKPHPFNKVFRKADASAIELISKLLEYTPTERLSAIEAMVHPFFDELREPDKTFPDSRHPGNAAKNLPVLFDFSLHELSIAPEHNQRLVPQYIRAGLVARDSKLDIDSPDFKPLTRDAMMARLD
Sequence of CAMK2G (KCC2G_HUMAN, Calcium/calmodulin-dependent protein kinase type II subunit gamma) (Q13555 whole entry): as the sequence (Q13555 whole entry) above

For the compound `CCC(=O)Nc1cc(-c2c(-c3ccc(F)cc3)nn3c2CCC3)ccn1` [BAYE-004], the “EC50 lower than EC50 of the rest of the LiP-Quant peptides above the 1.5 threshold” value in experiment [1] is listed as “approximately 1000 fold”. Besides, the EC50 in experiment [1] (two peptides, LiP-Quant rank #6 and #7) is 6 nM and 5 nM; in [3] it was 1600 nM. Moreover, the “thermal stability upon treatment” value in the experiment on His-tagged Bcin06g02870 is recorded as “thermally stabilized”. For the same compound, the “% Inhibition of CK-1” value in experiment [2] (concentration 1,00E-04 (unit not given)) was 92% and 90%; in [2] (concentration 1,00E-05 (unit not given)) it was 98% and 105%; in experiment [2] (concentration 1,00E-06 (unit not given)), 99% and 101%; in experiment [2] (concentration 1,00E-07 (unit not given)), 84% and 91%; in [2] (concentration 1,00E-08 (unit not given)), 53% and 50%; in [2] (concentration 1,00E-09 (unit not given)), 9%. Moreover, the concentration for half-maximal inhibition (IC50) in experiment [2] (read-out: IC50 (% Inhibition of CK-1)) was 12.5 nM. For the same compound, the inhibition at 0.40745 µM in the experiment on Botrytis cinerea (Botrytis cinerea, 72 h, read-out: Inhibition of growth, Dose 0.40745 uM) is 76.8%. For the same compound, the inhibition at 1.22234 µM with Botrytis cinerea (Botrytis cinerea, 72 h, read-out: Inhibition of growth, Dose 1.22234 uM) turned out to be 82.5%. In addition, the Inhibition of growth with Botrytis cinerea (Dose 0.40745 uM) was 76.882 and 79.9248; in the experiment on Botrytis cinerea (Dose 1.22234 uM), 82.7279 and 79.8427.
In the case of `CN[C@@H]1C[C@H]2O[C@@](C)([C@@H]1OC)n1c3ccccc3c3c4c(c5c6ccccc6n2c5c31)C(=O)NC4` [Staurosporine], the DRC at MAPK2K1 (MAP2K1) (setting [9]) turned out to be 0.9366; in experiment [4] (setting [10]), 0.9525; in experiment [6] (setting [12]), 0.9262; in experiment [8], 0.9333. The LIPRank worked out at 2 on MAPK2K1 (MAP2K1) (setting [9]); 2 on MAPK2K1 (MAP2K1) (peptide VSIAVIK (selumetinib sheet) or protein level (Supp Data 7)); 1 in experiment [4] (setting [10]); 1 in experiment [4] (setting [11]); 4 in experiment [6] (setting [12]); 4 in experiment [6] (setting [11]). The LIPRank worked out at 2 at EIF2AK2 (protein level), 3 at RPS6KA3 (protein level), 5 in [8] and 4 on NEK9 (protein level). Moreover, the LIPscore on MAPK2K1 (MAP2K1) (peptide VSIAVIK (selumetinib sheet) or best peptide of the protein (Supp Data 7)) turned out to be 2.822; at MAPK2K1 (MAP2K1) (staurosporine sheet, peptide LPSGVFSL, LIPRank 2), 2.822; in [4] (setting [11]) it was 3.113; in experiment [4] (staurosporine sheet, peptide […], LIPRank 1), 3.113; in experiment [5] (setting [11]) it was 2.777; in experiment [5] (staurosporine sheet, peptide […], LIPRank 3) it was 2.777. Also, the LIPscore in experiment [6] (setting [11]) stood at 2.665; in experiment [6] (staurosporine sheet, peptide VLGQGSFGK, LIPRank 4), 2.665; in experiment [7] it was 2.655; in experiment [8], 2.655. The LiP Score on EIF2AK2 (peptide IGDFGLVTSLK) was 4.708; at RPS6KA3 (peptide ADPSQFELLK), 4.635; at NEK9 (peptide GAFGEATLYR) it was 4.511.

A word on the EC50: it is the midpoint of the concentration-response curve. Usually IC50 stands for the concentration at which inhibition is half-maximal. By inhibition is commonly meant the percentage by which the read-out fell short of the control.
